The text below walks through data of patent US20240368177A1, “5-AMINO-6,8-DIHYDRO-1H-FURO[3,4-d]PYRROLO[3,2-b]PYRIDINE-2-CARBOXAMIDE DERIVATIVES AS MTA-COOPERATIVE INHIBITORS OF PRMT5” (BeiGene Switzerland GmbH, priority 2023, published 2024).

For one experiment, the system named is HCT116-MTAP-KO. The experiment is described as follows: Cell killing in HCT116 isogenic pair (Cell Titer-Glo viability), MTAP knock-out cells. It is filed as cell-based, human. The settings on record: Homo sapiens, HCT-116, 144 h, 6 days incubation, 0-10 μM, * = more than 50% viability inhibition at tested concentration without a full curve. In outline:
(§1)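 HCT116 MTAP-knockout or mock-knockout (MTAP wildtype) cells in RPMI 1640 with 10% FBS were seeded overnight, then exposed to test compound at 0–10 μM final for 6 days at 37° C. Viability was measured by CellTiter-Glo luminescence and IC50 was fitted.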

The next experiment concerns HCT116-mock-RNA-KO. The experiment is described as follows: Cell killing in HCT116 isogenic pair (Cell Titer-Glo viability), mock knock-out cells with MTAP wildtype genotype. It is filed as cell-based, human. The settings on record: Homo sapiens, HCT-116, 144 h, 6 days incubation, 0-10 μM. In outline: as §1

As a reminder, the IC50 is the concentration that gives 50% inhibition. A high value points to weaker potency in that assay.

Some results are limits rather than exact numbers.

For `CN(C(=O)c1cc2nc(N)c3c(c2[nH]1)COC3)[C@@H]1COCc2cc(Br)cc(F)c21` [Example 96, (S)-5-amino-N-(7-bromo-5-fluoroisochroman-4-yl)-N-methyl-6,8-dihydro-1H-furo[3,4-d]pyrrolo[3,2-b]pyridine-2-carboxamide], the results for the half-maximal inhibitory concentration (IC50) with HCT116-MTAP-KO and in the experiment on HCT116-mock-RNA-KO were 7.2 nM and 1930 nM, respectively.
The corresponding values for `CN(C(=O)c1cc2nc(N)c3c(c2[nH]1)COC3)[C@@H]1COCc2cc(C#N)cc(F)c21` [Example 97, (S)-5-amino-N-(7-cyano-5-fluoroisochroman-4-yl)-N-methyl-6,8-dihydro-1H-furo[3,4-d]pyrrolo[3,2-b]pyridine-2-carboxamide] are 17 nM and 2890 nM.
The corresponding values for `CC(=O)N1Cc2cc(C(F)(F)F)ccc2[C@H](N(C)C(=O)c2cc3nc(N)c4c(c3[nH]2)COC4)C1` [Example 98, (S)—N-(2-acetyl-7-(trifluoromethyl)-1,2,3,4-tetrahydroisoquinolin-4-yl)-5-amino-N-methyl-6,8-dihydro-1H-furo[3,4-d]pyrrolo[3,2-b]pyridine-2-carboxamide] are 11 nM and 1860 nM.
The corresponding values for `CC(=O)N1Cc2cc(C(F)(F)F)ccc2[C@@H](N(C)C(=O)c2cc3nc(N)c4c(c3[nH]2)COC4)C1` [Example 99, (R)—N-(2-acetyl-7-(trifluoromethyl)-1,2,3,4-tetrahydroisoquinolin-4-yl)-5-amino-N-methyl-6,8-dihydro-1H-furo[3,4-d]pyrrolo[3,2-b]pyridine-2-carboxamide] are 722 nM and more than 10000 nM.
On to `CN(C(=O)c1cc2nc(N)c3c(c2[nH]1)COC3)[C@@H]1CN(C(=O)C2CC2)Cc2cc(C(F)(F)F)ccc21` [Example 100, (S)-5-amino-N-(2-(cyclopropanecarbonyl)-7-(trifluoromethyl)-1,2,3,4-tetrahydroisoquinolin-4-yl)-N-methyl-6,8-dihydro-1H-furo[3,4-d]pyrrolo[3,2-b]pyridine-2-carboxamide], for which the 50% inhibitory concentration (IC50) in the experiment with HCT116-MTAP-KO came to 1.4 nM; in the experiment with HCT116-mock-RNA-KO, 136 nM.
The corresponding values for `CN(C(=O)c1cc2nc(N)c3c(c2[nH]1)COC3)[C@H]1CN(C(=O)C2CC2)Cc2cc(C(F)(F)F)ccc21` [Example 101, (R)-5-amino-N-(2-(cyclopropanecarbonyl)-7-(trifluoromethyl)-1,2,3,4-tetrahydroisoquinolin-4-yl)-N-methyl-6,8-dihydro-1H-furo[3,4-d]pyrrolo[3,2-b]pyridine-2-carboxamide] are 339 nM and 2090 nM.
The corresponding values for `CC(C)C(=O)N1Cc2cc(C(F)(F)F)ccc2[C@H](N(C)C(=O)c2cc3nc(N)c4c(c3[nH]2)COC4)C1` [Example 102, (S)-5-amino-N-(2-isobutyryl-7-(trifluoromethyl)-1,2,3,4-tetrahydroisoquinolin-4-yl)-N-methyl-6,8-dihydro-1H-furo[3,4-d]pyrrolo[3,2-b]pyridine-2-carboxamide] are 1.1 nM and 77 nM.
The corresponding values for `CC(C)C(=O)N1Cc2cc(C(F)(F)F)ccc2[C@@H](N(C)C(=O)c2cc3nc(N)c4c(c3[nH]2)COC4)C1` [Example 103, (R)-5-amino-N-(2-isobutyryl-7-(trifluoromethyl)-1,2,3,4-tetrahydroisoquinolin-4-yl)-N-methyl-6,8-dihydro-1H-furo[3,4-d]pyrrolo[3,2-b]pyridine-2-carboxamide] are 272 nM and 2450 nM.
Consider `CN(C(=O)c1cc2nc(N)c3c(c2[nH]1)COC3)[C@@H]1COCc2cc(-c3cccnc3)ccc21` [Example 104, (S)-5-amino-N-methyl-N-(7-(pyridin-3-yl)isochroman-4-yl)-6,8-dihydro-1H-furo[3,4-d]pyrrolo[3,2-b]pyridine-2-carboxamide], for which the IC50 in the experiment on HCT116-MTAP-KO stood at 18 nM; in the experiment with HCT116-mock-RNA-KO, 2730 nM.
The matching figures for `CCC(CC)N(Cc1c(F)cc(C2CC2)cc1F)C(=O)c1cc2nc(N)c3c(c2[nH]1)COC3` [Example 105, 5-amino-N-(4-cyclopropyl-2,6-difluorobenzyl)-N-(pentan-3-yl)-6,8-dihydro-1H-furo[3,4-d]pyrrolo[3,2-b]pyridine-2-carboxamide]: 13 nM and 930 nM.
The corresponding values for `CC(C)N(Cc1ccc(C2CC2)cn1)C(=O)c1cc2nc(N)c3c(c2[nH]1)CO[C@@H]3C` [Example 106, (R)-5-amino-N-((5-cyclopropylpyridin-2-yl)methyl)-N-isopropyl-6-methyl-6,8-dihydro-1H-furo[3,4-d]pyrrolo[3,2-b]pyridine-2-carboxamide] are 11 nM and 2630 nM.
The matching figures for `CC[C@@H](C)N(Cc1ccc(C2CCC2)cn1)C(=O)c1cc2nc(N)c3c(c2[nH]1)COC3` [Example 107, (R)-5-amino-N-(sec-butyl)-N-((5-cyclobutylpyridin-2-yl)methyl)-6,8-dihydro-1H-furo[3,4-d]pyrrolo[3,2-b]pyridine-2-carboxamide]: 20 nM and 1090 nM.
Consider `CC[C@@H](C)N(Cc1ccc(C2CC2)c(C)n1)C(=O)c1cc2nc(N)c3c(c2[nH]1)COC3` [Example 108, (R)-5-amino-N-(sec-butyl)-N-((5-cyclopropyl-6-methylpyridin-2-yl)methyl)-6,8-dihydro-1H-furo[3,4-d]pyrrolo[3,2-b]pyridine-2-carboxamide], for which the IC50 in the experiment on HCT116-MTAP-KO amounted to 31 nM; in the experiment with HCT116-mock-RNA-KO, 3420 nM.
The matching figures for `CCC(CC)N(Cc1cc(C)c(C2CC2)cn1)C(=O)c1cc2nc(N)c3c(c2[nH]1)COC3` [Example 109, 5-amino-N-((5-cyclopropyl-4-methylpyridin-2-yl)methyl)-N-(pentan-3-yl)-6,8-dihydro-1H-furo[3,4-d]pyrrolo[3,2-b]pyridine-2-carboxamide]: 24 nM and 1790 nM.
The corresponding values for `CCN(C(=O)c1cc2nc(N)c3c(c2[nH]1)COC3)[C@H](C)c1ncc(C(F)(F)F)cc1F` [Example 110, (R)-5-amino-N-ethyl-N-(1-(3-fluoro-5-(trifluoromethyl)pyridin-2-yl)ethyl)-6,8-dihydro-1H-furo[3,4-d]pyrrolo[3,2-b]pyridine-2-carboxamide] are 12 nM and 2490 nM.
For the molecule `CCN(C(=O)c1cc2nc(N)c3c(c2[nH]1)COC3)[C@@H](C)c1ncc(C(F)(F)F)cc1F` [Example 111, (S)-5-amino-N-ethyl-N-(1-(3-fluoro-5-(trifluoromethyl)pyridin-2-yl)ethyl)-6,8-dihydro-1H-furo[3,4-d]pyrrolo[3,2-b]pyridine-2-carboxamide], the results for the IC50 in the experiment on HCT116-MTAP-KO and in the experiment with HCT116-mock-RNA-KO were 2200 nM and more than 10000 nM, respectively.
With `CCN(C(=O)c1cc2nc(N)c3c(c2[nH]1)COC3)[C@H](C)c1ccc(C2CC2)cn1` [Example 112, (R)-5-amino-N-(1-(5-cyclopropylpyridin-2-yl)ethyl)-N-ethyl-6,8-dihydro-1H-furo[3,4-d]pyrrolo[3,2-b]pyridine-2-carboxamide], the half-inhibitory concentration (IC50) in the experiment on HCT116-MTAP-KO is 59 nM; in the experiment with HCT116-mock-RNA-KO, more than 10000 nM.
The corresponding values for `CCN(C(=O)c1cc2nc(N)c3c(c2[nH]1)COC3)[C@@H](C)c1ccc(C2CC2)cn1` [Example 113, (S)-5-amino-N-(1-(5-cyclopropylpyridin-2-yl)ethyl)-N-ethyl-6,8-dihydro-1H-furo[3,4-d]pyrrolo[3,2-b]pyridine-2-carboxamide] are 1610 nM and more than 10000 nM.
